This passage reports Activity and inhibition results from ChEMBL document CHEMBL5316364, “Genipin Analogue (G300) Inhibits Adipogenic Differentiation of Human Bone Marrow-Derived Mesenchymal Stem Cells through the Suppression of Adipogenic Promoting Factors” (J Nat Prod, 2023).

Calls of active or inactive are those of the source. No cut-off for these calls is given here.

Series [1] relates to 3T3-L1. The experiment in a line: Anti-adipogenic activity in mouse 3T3-L1 preadipocytes assessed as decrease in adipocyte numbers at 20 uM measured after 7 days by Oil Red O staining based inverted phase contrast microscopic analysis. The class given is functional, cell-based. The note with it: time 7.0 day.
The subject of series [2] is Mesenchymal stem cells. The experiment in a line: Anti-adipogenic activity in human derived bone marrow mesenchymal stem cells assessed as reduction in adiponectin release measured after 21 days by flow cytometry analysis. Format: functional, cell-based. The note with it: time 21.0 day. For orientation: A flow cytometer gives signals particle by particle.
The test system of series [3] is Mesenchymal stem cells. The experiment in a line: Anti-adipogenic activity in human derived bone marrow mesenchymal stem cells assessed as reduction in adipsin release measured after 21 days by flow cytometry analysis. The conditions noted are these: time 21.0 day. Format: functional, cell-based.
Series [4] has as its system Mesenchymal stem cells. The experiment in a line: Anti-adipogenic activity in human bone marrow derived Mesenchymal stem cells assessed as reduction in adipocyte count at 5 to 20 uM after 21 days by Oil Red O staining based inverted phase contrast microscopic analysis. Format: functional, cell-based. The note with it: dose 5-20 µM, time 21.0 day.
Series [5] concerns Mesenchymal stem cells. The experiment in a line: Anti-adipogenic activity in human derived bone marrow mesenchymal cells assessed as downregulation of FABP4 mRNA expression at 10 to 20 uM measured on day 21 by qRT-PCR analysis. The class given is functional, cell-based. The conditions noted are these: dose 10-20 µM, time 21.0 day. (In general: In qPCR the cycle at which signal appears reflects the starting amount.)

The subject of series [6] is Mesenchymal stem cells. The experiment in a line: Anti-adipogenic activity in human derived bone marrow mesenchymal stem cells assessed as glycerol release at 10 uM incubated for 12 hrs by colorimetric analysis relative to control. Format: functional.
The subject of series [7] is Mesenchymal stem cells. The experiment in a line: Anti-adipogenic activity against human bone marrow derived Mesenchymal stem cells assessed as downregulation of SREBP-1c mRNA expression at 20 uM measured after 7 days by qRT-PCR analysis. Format: functional, cell-based. The note with it: time 7.0 day.
The test system of series [8] is Mesenchymal stem cells. The experiment in a line: Anti-adipogenic activity in human derived bone marrow mesenchymal stem cells assessed as reduction in […] release measured after 21 days by flow cytometry analysis. The note with it: time 21.0 day. The class given is functional, cell-based.
Series [9] concerns Mesenchymal stem cells. As to the kind of experiment: Anti-adipogenic activity in human derived bone marrow mesenchymal stem cells assessed as glycerol release at 5 uM incubated for 12 hrs by colorimetric analysis relative to control. The class given is functional.
Series [10] concerns Mesenchymal stem cells. As to the kind of experiment: Downregulation of RBP4 level in human bone marrow derived mesenchymal stem cells at 5 to 20 uM measured after 48 hrs by flow cytometric analysis. The class given is functional, cell-based. The note with it: dose 5-20 µM.
Series [11] has as its system Mesenchymal stem cells. The experiment in a line: Anti-adipogenic activity against human bone marrow derived Mesenchymal stem cells assessed as downregulation of C/EBPbeta mRNA expression at 20 uM measured after 7 days by qRT-PCR analysis. Format: functional, cell-based. The conditions noted are these: time 7.0 day.
Series [12] concerns Mesenchymal stem cells. The experiment in a line: Anti-adipogenic activity in human derived bone marrow mesenchymal cells assessed as downregulation of GLUT4 mRNA expression at 10 to 20 uM measured on day 21 by qRT-PCR analysis. The class given is functional, cell-based. The conditions noted are these: dose 10-20 µM, time 21.0 day.
Series [13] deals with Mesenchymal stem cells. The experiment in a line: Upregulation of adiponectin level in human bone marrow derived mesenchymal stem cells at 5 to 20 uM measured after 48 hrs by flow cytometric analysis. Format: functional, cell-based. The note with it: dose 5-20 µM.
In series [14] the test system is Mesenchymal stem cells. The experiment in a line: Inhibition of lipid droplet accumulation in human bone marrow derived Mesenchymal stem cells at 5 to 20 uM incubated for 21 days by Oil red o staining based microplate reader analysis. Format: functional, cell-based. The note with it: dose 5-20 µM, time 21.0 day.
In series [15] the test system is Mesenchymal stem cells. As to the kind of experiment: Anti-adipogenic activity in human derived bone marrow derived Mesenchymal stem cells assessed as downregulation of C/EBPalpha protein expression at 20 uM measured after 7 days by western blot analysis. Format: functional, cell-based. The note with it: time 7.0 day. On the technique in general: Immunoblotting shows a protein as a band on a membrane.

Series [16] concerns Mesenchymal stem cells. As to the kind of experiment: Downregulation of IL8 level in human bone marrow derived mesenchymal stem cells at 5 to 20 uM measured after 48 hrs by flow cytometric analysis. Format: functional, cell-based. The note with it: dose 5-20 µM.
The subject of series [17] is Mesenchymal stem cells. The experiment in a line: Downregulation of IL6 level in human bone marrow derived mesenchymal stem cells at 5 to 20 uM measured after 48 hrs by flow cytometric analysis. The class given is functional, cell-based. The conditions noted are these: dose 5-20 µM.
Series [18] concerns Mesenchymal stem cells. The experiment in a line: Inhibition of lipid droplet accumulation in human bone marrow derived Mesenchymal stem cells at 10 to 20 uM by Oil red o staining based microplate reader analysis. The class given is functional, cell-based. The note with it: dose 10-20 µM.
In series [19] the test system is Mesenchymal stem cells. The experiment in a line: Cytotoxicity against human bone marrow derived Mesenchymal stem cells assessed as reduction in cell viability at 1 to 20 uM incubated for 1 to 10 days by MTT assay. Format: toxicity, cell-based. The note with it: dose lower 1 µM, time lower 1 day, dose upper 20 µM, time upper 10 day.
Series [20] deals with Mesenchymal stem cells. The experiment in a line: Anti-adipogenic activity in human derived bone marrow derived Mesenchymal stem cells assessed as reduction in PPARgamma expression at 20 uM measured after 7 days by Western blot analysis. The class given is functional, cell-based. The conditions noted are these: time 7.0 day.
Series [21] deals with Mesenchymal stem cells. As to the kind of experiment: Anti-adipogenic activity against human bone marrow derived Mesenchymal stem cells assessed as downregulation of PPARG mRNA expression at 20 uM measured after 7 days by qRT-PCR analysis. The conditions noted are these: time 7.0 day. Format: functional, cell-based.
For series [22], the system named is Mesenchymal stem cells. The experiment in a line: Anti-adipogenic activity in human derived bone marrow mesenchymal cells assessed as downregulation of LPL mRNA expression at 10 to 20 uM measured on day 21 by qRT-PCR analysis. The note with it: dose 10-20 µM, time 21.0 day. Format: functional, cell-based.
The test system of series [23] is Mesenchymal stem cells. As to the kind of experiment: Anti-adipogenic activity against human bone marrow derived Mesenchymal stem cells assessed as downregulation of C/EBPalpha mRNA expression at 20 uM measured after 7 days by qRT-PCR analysis. Format: functional, cell-based. The note with it: time 7.0 day.
The subject of series [24] is Mesenchymal stem cells. As to the kind of experiment: Downregulation of MCP-1 level in human bone marrow derived mesenchymal stem cells at 5 to 20 uM measured after 48 hrs by flow cytometric analysis. Format: functional, cell-based. The conditions noted are these: dose 5-20 µM.
Series [25] has as its system Mesenchymal stem cells. As to the kind of experiment: Antidiabetic activity in human bone marrow mesenchymal stem cells assessed as glucose uptake by measuring 2-DG6P level at 15 to 20 uM by glucose uptake assay. Format: functional, cell-based. The conditions noted are these: dose 15-20 µM.
Series [26] deals with Mesenchymal stem cells. The experiment in a line: Anti-adipogenic activity in human derived bone marrow mesenchymal stem cells assessed as glycerol release at 20 uM incubated for 12 hrs by colorimetric analysis relative to control. The class given is functional.
In series [27] the test system is Mesenchymal stem cells. The experiment in a line: Upregulation of adipsin level in human bone marrow derived mesenchymal stem cells at 5 to 20 uM measured after 48 hrs by flow cytometric analysis. Format: functional, cell-based. The conditions noted are these: dose 5-20 µM.

Consider `COC(=O)C1=CO[C@@H](OC)[C@@H]2C(Cn3cc(COc4cc(C=O)ccc4OC)nn3)=CC[C@H]12`, for which the outcome in [1] was Active.

As to `COC(=O)C1=CO[C@@H](OC)[C@@H]2C(Cn3cc(-c4ccccc4)nn3)=CC[C@H]12`, the outcome in [1] was Active.

With `COC(=O)C1=CO[C@@H](OC)[C@@H]2C(Cn3cc(COc4ccc5ccc(=O)oc5c4)nn3)=CC[C@H]12`, in series [1], the result was Active.

For the compound `COC(=O)C1=CO[C@@H](OC)[C@@H]2C(Cn3cc(COCc4ccccc4)nn3)=CC[C@H]12`, the result in series [1] was Active.

With `COC(=O)C1=CO[C@@H](O)[C@@H]2C(CO)=CC[C@H]12`, in series [1], the result was Active.

As for `COC(=O)C1=CO[C@@H](OC)[C@@H]2C(Cn3cc(CCBr)nn3)=CC[C@H]12`, the result in series [1] was Active.

As for `COC(=O)C1=CO[C@@H](OC)[C@@H]2C(Cn3cc(C4(O)CCCCC4)nn3)=CC[C@H]12`, the result in [1] was Active.

Take `COC(=O)C1=CO[C@@H](OC)[C@@H]2C(Cn3cc(COCCc4ccccc4)nn3)=CC[C@H]12`: the result in series [1] was Active.

Turning to `COC(=O)C1=CO[C@@H](OC)[C@@H]2C(Cn3cc(CCCOC(c4ccccc4)(c4ccccc4)c4ccccc4)nn3)=CC[C@H]12`, the outcome in [2], in series [3], in series [4], in series [5], in series [1] and in series [7] was Active. The result in [8], in series [10], in series [11], in series [12], in series [13] and in series [15] was Active. Further, the result in series [16], in [17], in [20], in series [21], in series [22] and in series [23] was Active. Moreover, the result in series [24], in [25] and in series [27] was Active. Further, the Activity in series [6] is recorded as 25%; in [9] it was 17%; in [19], “Non-Toxic”; in series [26], 33%. The inhibition result in series [14] and in series [18] was “Active” in each case.

Regarding `COC(=O)C1=CO[C@@H](OC)[C@@H]2C(Cn3cc(COCc4ccc(OC)c(OC)c4)nn3)=CC[C@H]12`, the outcome in series [1] was Active.

With `COC(=O)C1=CO[C@@H](OC)[C@@H]2C(Cn3cc(C(O)(c4ccccc4)c4ccccc4)nn3)=CC[C@H]12`, the outcome in series [1] was Active.

As for `CCCCCCCCCCCCCCCCCCOCc1cn(CC2=CC[C@@H]3C(C(=O)OC)=CO[C@@H](OC)[C@H]23)nn1`, the result in series [1] was Active.

Take `COC(=O)C1=CO[C@@H](OC)[C@@H]2C(Cn3cc(COCc4cc(OC)ccc4OC)nn3)=CC[C@H]12`: the result in series [1] was Active.
